Measurements published in ChEMBL document CHEMBL1132463, “Metabolism-based brain-targeting system for a thyrotropin-releasing hormone analogue” (1999).
Square brackets hold non-standard residues; d marks the D form. Peptide text beside a SMILES is read from it. * marks the point of attachment. Nicotinoyl(1-Me-1,4-dihydro) = CN1C=CCC(C(=O)*)=C1; X1 = CC(C)CCC(C)C1CCC2C3CC=C4CC(O*)CCC4(C)C3CCC12C; pGlu = O=C1CC[C@@H](C(=O)O)N1

These compounds were tested on Mus musculus (assay: Barbiturate-induced sleeping time in mice after the administration of the compound).
Type: functional
Compound CC(C)CCC(C)C1CCC2C3CC=C4CC(OC(=O)CNC(=O)[C@@H]5CCCN5C(=O)[C@H](CC(C)C)NC(=O)[C@H](CCC(N)=O)NC(=O)[C@H](C)NC(=O)C5=CN(C)C=CC5)CCC4(C)C3CCC12C (some centres not stated) ({Nicotinoyl(1-Me-1,4-dihydro)}-AQLPG-X1) has a Sleeping time of 38 min. CC(C)CCC(C)C1CCC2C3CC=C4CC(OC(=O)CNC(=O)[C@@H]5CCCN5C(=O)[C@H](CC(C)C)NC(=O)[C@H](CCC(N)=O)NC(=O)[C@@H]5CCCN5C(=O)[C@H](C)NC(=O)C5=CN(C)C=CC5)CCC4(C)C3CCC12C (some centres not stated) ({Nicotinoyl(1-Me-1,4-dihydro)}-APQLPG-X1) gave a Sleeping time of 35 min. With CC(C)CCC(C)C1CCC2C3CC=C4CC(OC(=O)CNC(=O)[C@@H]5CCCN5C(=O)[C@H](CC(C)C)NC(=O)[C@H](CCC(N)=O)NC(=O)[C@H](C)NC(=O)[C@H](C)NC(=O)C5=CN(C)C=CC5)CCC4(C)C3CCC12C (some centres not stated) ({Nicotinoyl(1-Me-1,4-dihydro)}-AAQLPG-X1) the Sleeping time was 37 min. For CC(C)C[C@H](NC(=O)[C@@H]1CCC(=O)N1)C(=O)N1CCC[C@H]1C(N)=O ([pGlu]-Leu-Pro-NH2), the Sleeping time was 45.5 min. Work on CC(C)CCC(C)C1CCC2C3CC=C4CC(OC(=O)CNC(=O)[C@@H]5CCCN5C(=O)[C@H](CC(C)C)NC(=O)[C@H](CCC(N)=O)NC(=O)[C@@H]5CCCN5C(=O)[C@@H]5CCCN5C(=O)C5=CN(C)C=CC5)CCC4(C)C3CCC12C (some centres not stated) ({Nicotinoyl(1-Me-1,4-dihydro)}-PPQLPG-X1) yielded a Sleeping time of 26.8 min. For CC(C)CCC(C)C1CCC2C3CC=C4CC(OC(=O)CNC(=O)[C@@H]5CCCN5C(=O)[C@H](CC(C)C)NC(=O)[C@H](CCC(N)=O)NC(=O)[C@H](C)NC(=O)[C@@H]5CCCN5C(=O)C5=CN(C)C=CC5)CCC4(C)C3CCC12C (some centres not stated) ({Nicotinoyl(1-Me-1,4-dihydro)}-PAQLPG-X1), the Sleeping time was 24.3 min. CC(C)CCC(C)C1CCC2C3CC=C4CC(OC(=O)CNC(=O)[C@@H]5CCCN5C(=O)[C@H](CC(C)C)NC(=O)[C@H](CCC(N)=O)NC(=O)[C@@H]5CCCN5C(=O)C5=CN(C)C=CC5)CCC4(C)C3CCC12C (some centres not stated) ({Nicotinoyl(1-Me-1,4-dihydro)}-PQLPG-X1) showed a Sleeping time of 29.2 min.
